Experimental data from article PMC12692169, “Identification of Novel TAT-I24-Related Peptides with Antiviral Activities” (International Journal of Molecular Sciences, 2025).
Residues, ends and D or L forms follow the SMILES beside them.

Legend:
Baculovirus/HEK293 = conditions: 24 h
[1] = test system: mouse cytomegalovirus (MCMV)/NIH/3T3 cells; conditions: 72 h
red blood cells (RBC) = assay: RBC swelling (enlarged pellet after centrifugation); conditions: 1 h; for RBC swelling: peptides diluted in PBS (absence of serum), up to 20 µM, pellet size after centrifugation

Row | Structure (SMILES) | IC50 (Baculovirus/HEK293) [nM] | IC50 [1] [nM] | RBC swelling (red blood cells (RBC)) | RBC swelling in the presence of serum (red blood cells (RBC); peptides diluted in 10% human/donor serum)
1 | CC(C)[C@H](NC(=O)[C@H](CO)NC(=O)[C@H](CCC(N)=O)NC(=O)[C@@H]1CCCN1C(=O)[C@@H]1CCCN1C(=O)[C@H](CCCNC(=N)N)NC(=O)[C@H](CCCNC(=N)N)NC(=O)[C@H](CCCNC(=N)N)NC(=O)[C@H](CCC(N)=O)NC(=O)[C@H](CCCNC(=N)N)NC(=O)[C@H](CCCNC(=N)N)NC(=O)[C@H](CCCCN)NC(=O)[C@H](CCCCN)NC(=O)[C@H](CCCNC(=N)N)NC(=O)CN)C(=O)N[C@@H](Cc1ccccc1)C(=O)N[C@@H](Cc1ccc(O)cc1)C(=O)N[C@@H](C)C(=O)N[C@@H](CS)C(=O)N[C@@H](Cc1ccccc1)C(=O)N[C@@H](C)C(=O)N[C@@H](CS)C(=O)O [TAT-De1] (H-GRKKRRQRRRPPQSVFYACFAC-OH) | 37 | 1610 | less effect on RBC swelling | –
2 | CC(C)C[C@H](NC(=O)[C@H](CS)NC(=O)[C@H](CCC(N)=O)NC(=O)[C@@H]1CCCN1C(=O)[C@@H]1CCCN1C(=O)[C@H](CCCNC(=N)N)NC(=O)[C@H](CCCNC(=N)N)NC(=O)[C@H](CCCNC(=N)N)NC(=O)[C@H](CCC(N)=O)NC(=O)[C@H](CCCNC(=N)N)NC(=O)[C@H](CCCNC(=N)N)NC(=O)[C@H](CCCCN)NC(=O)[C@H](CCCCN)NC(=O)[C@H](CCCNC(=N)N)NC(=O)CN)C(=O)N[C@@H](C)C(=O)N[C@@H](Cc1ccccc1)C(=O)N[C@@H](Cc1ccc(O)cc1)C(=O)N[C@@H](C)C(=O)N[C@@H](CS)C(=O)N[C@@H](Cc1ccccc1)C(=O)N[C@@H](CS)C(=O)O [TAT-I24] (H-GRKKRRQRRRPPQCLAFYACFC-OH) | 16 | 809 | caused RBC swelling at higher concentrations | not in the presence of donor serum
3 | CC[C@H](C)[C@H](NC(=O)[C@H](C)NC(=O)[C@H](CC(C)C)NC(=O)[C@H](CS)NC(=O)[C@H](CCC(N)=O)NC(=O)[C@@H]1CCCN1C(=O)[C@@H]1CCCN1C(=O)[C@H](CCCNC(=N)N)NC(=O)[C@H](CCCNC(=N)N)NC(=O)[C@H](CCCNC(=N)N)NC(=O)[C@H](CCC(N)=O)NC(=O)[C@H](CCCNC(=N)N)NC(=O)[C@H](CCCNC(=N)N)NC(=O)[C@H](CCCCN)NC(=O)[C@H](CCCCN)NC(=O)[C@H](CCCNC(=N)N)NC(=O)CN)C(=O)N[C@@H](Cc1ccc(O)cc1)C(=O)N[C@@H](CC(=O)O)C(=O)N[C@@H](CS)C(=O)N[C@@H](Cc1ccccc1)C(=O)N[C@@H](CS)C(=O)O [TAT-M13] (H-GRKKRRQRRRPPQCLAIYDCFC-OH) | 31 | 1220 | caused RBC swelling at higher concentrations | –
4 | CC(C)C[C@H](NC(=O)[C@H](CS)NC(=O)[C@H](CCC(N)=O)NC(=O)[C@@H]1CCCN1C(=O)[C@@H]1CCCN1C(=O)[C@H](CCCNC(=N)N)NC(=O)[C@H](CCCNC(=N)N)NC(=O)[C@H](CCCNC(=N)N)NC(=O)[C@H](CCC(N)=O)NC(=O)[C@H](CCCNC(=N)N)NC(=O)[C@H](CCCNC(=N)N)NC(=O)[C@H](CCCCN)NC(=O)[C@H](CCCCN)NC(=O)[C@H](CCCNC(=N)N)NC(=O)CN)C(=O)N[C@@H](C)C(=O)N[C@H](C(=O)N[C@@H](Cc1ccc(O)cc1)C(=O)N[C@@H](CC(=O)O)C(=O)N[C@@H](CS)C(=O)N[C@@H](Cc1ccccc1)C(=O)N[C@H](C(=O)O)C(C)C)C(C)C [TAT-M17] (H-GRKKRRQRRRPPQCLAVYDCFV-OH; N-terminus and C-terminus assumed) | 102 | 5850 | did not cause RBC swelling in the absence of serum even at 20 µM | –
5 | CC(C)C[C@H](NC(=O)[C@H](CS)NC(=O)[C@H](CCC(N)=O)NC(=O)[C@@H]1CCCN1C(=O)[C@@H]1CCCN1C(=O)[C@H](CCCNC(=N)N)NC(=O)[C@H](CCCNC(=N)N)NC(=O)[C@H](CCCNC(=N)N)NC(=O)[C@H](CCC(N)=O)NC(=O)[C@H](CCCNC(=N)N)NC(=O)[C@H](CCCNC(=N)N)NC(=O)[C@H](CCCCN)NC(=O)[C@H](CCCCN)NC(=O)[C@H](CCCNC(=N)N)NC(=O)CN)C(=O)N[C@@H](C)C(=O)N[C@H](C(=O)N[C@@H](Cc1c[nH]cn1)C(=O)N[C@@H](CC(=O)O)C(=O)N[C@@H](CS)C(=O)N[C@@H](Cc1ccccc1)C(=O)N[C@H](C(=O)O)C(C)C)C(C)C [TAT-M22] (H-GRKKRRQRRRPPQCLAVHDCFV-OH; N-terminus and C-terminus assumed) | 245 | 11800 | did not cause RBC swelling in the absence of serum even at 20 µM | –
6 | CC(C)C[C@H](NC(=O)[C@H](CS)NC(=O)[C@H](C)NC(=O)[C@H](Cc1ccc(O)cc1)NC(=O)[C@H](Cc1ccccc1)NC(=O)[C@H](C)NC(=O)[C@H](CC(C)C)NC(=O)[C@H](CCC(N)=O)NC(=O)[C@@H]1CCCN1C(=O)[C@@H]1CCCN1C(=O)[C@H](CCCNC(=N)N)NC(=O)[C@H](CCCNC(=N)N)NC(=O)[C@H](CCCNC(=N)N)NC(=O)[C@H](CCC(N)=O)NC(=O)[C@H](CCCNC(=N)N)NC(=O)[C@H](CCCNC(=N)N)NC(=O)[C@H](CCCCN)NC(=O)[C@H](CCCCN)NC(=O)[C@H](CCCNC(=N)N)NC(=O)CN)C(=O)N[C@@H](C)C(=O)N[C@@H](Cc1ccccc1)C(=O)O [TAT-M40] (H-GRKKRRQRRRPPQLAFYACLAF-OH) | 21 | 1850 | caused RBC swelling at higher concentrations | –
7 | CC(C)C[C@H](NC(=O)[C@H](CS)NC(=O)[C@H](C)NC(=O)[C@H](Cc1ccc(O)cc1)NC(=O)[C@H](Cc1ccccc1)NC(=O)[C@H](C)NC(=O)[C@H](CC(C)C)NC(=O)[C@H](CS)NC(=O)[C@@H]1CCCN1C(=O)[C@H](CCCNC(=N)N)NC(=O)[C@H](CCCNC(=N)N)NC(=O)[C@H](CCCNC(=N)N)NC(=O)[C@H](CCC(N)=O)NC(=O)[C@H](CCCNC(=N)N)NC(=O)[C@H](CCCNC(=N)N)NC(=O)[C@H](CCCCN)NC(=O)[C@H](CCCCN)NC(=O)[C@H](CCCNC(=N)N)NC(=O)CN)C(=O)N[C@@H](C)C(=O)N[C@@H](Cc1ccccc1)C(=O)N[C@@H](Cc1ccc(O)cc1)C(=O)N[C@@H](C)C(=O)N[C@@H](CS)C(=O)O [TAT-M212] (H-GRKKRRQRRRPCLAFYACLAFYAC-OH) | 619 | 18200 | caused RBC swelling over a broad concentration range comparable to TAT-M214 | –
8 | CC(C)C[C@H](NC(=O)[C@H](CO)NC(=O)[C@H](C)NC(=O)[C@H](Cc1ccc(O)cc1)NC(=O)[C@H](Cc1ccccc1)NC(=O)[C@H](C)NC(=O)[C@H](CC(C)C)NC(=O)[C@H](CCC(N)=O)NC(=O)[C@@H]1CCCN1C(=O)[C@@H]1CCCN1C(=O)[C@H](CCCNC(=N)N)NC(=O)[C@H](CCCNC(=N)N)NC(=O)[C@H](CCCNC(=N)N)NC(=O)[C@H](CCC(N)=O)NC(=O)[C@H](CCCNC(=N)N)NC(=O)[C@H](CCCNC(=N)N)NC(=O)[C@H](CCCCN)NC(=O)[C@H](CCCCN)NC(=O)[C@H](CCCNC(=N)N)NC(=O)CN)C(=O)N[C@@H](C)C(=O)N[C@@H](Cc1ccccc1)C(=O)O [TAT-M219] (H-GRKKRRQRRRPPQLAFYASLAF-OH) | 96 | 7380 | did not cause RBC swelling in the absence of serum even at 20 µM | –
